Data on one molecule can be found in patent publication US20110160266A1, “Novel Anti-Arrhythmia Agent” (THE UAB RESEARCH FOUNDATION, priority 2008, published 2011).

The test system of experiment [1] is isolated, superfused rat left atria. How it is done: Left atria were isolated from male Sprague-Dawley rats (325 to 400 g) under IP pentobarbital anesthesia (0.1 g/kg). Isolated left atria were superfused at 30° C. in Krebs-Henseleit (KH) buffer of the following mM composition: NaCl, 118; NaHCO3, 27; KCl, 4.8; MgSO4, 1.2; KH2PO4, 1.0; CaCl2, 1.8; and glucose, 11.1. Nearly isometric left atrial forces of contraction were measured as described.
Isolated superfused left atria were paced at 3 Hz. 2-APB was added to atrial superfusates from 0.015 or 0.15M DMSO stock solutions to achieve concentrations of 0, 2, 7.5, 15, or 22 μM (n=5 to 10 atria per concentration). Changes in atrial mechanical force were recorded during a subsequent 15 min superfusion.
Two groups of 5 to 6, 3 Hz paced atria were superfused in KH and exposed to 0 or 15 μM 2-APB for 10 min. The pacing stimulus was interrupted for 5 min and the number of spontaneous mechanical events (SMEs), defined as increases in mechanical force occurring in the absence of pacing, were measured as was the postrest potentiation response (PRP).
To determine whether diastolic interval affected the interaction between 2-APB and left atria, atrial pacing was decreased to 0.1 Hz, and 0, 7.5, or 22 μM 2-APB was added to the superfusate (n=6-8 per group). Superfusions continued for 15 min, and changes in atrial mechanical function were observed.
To establish whether SMA was reversible, atria (n=7) were paced at 0.1 Hz, exposed to 15 μM 2-APB for 10 min, and washed with KH. The effect of removing 2-APB on atrial mechanical function was recorded.

In another experiment the test system is isolated rat left atria. Kind of experiment: Pharmacological activation of spontaneous tachycardic activity (STA): calcium-loading agents with or without 2-APB. How it is done:
Male Sprague-Dawley rats (325-400 g) were anesthetized with intra-peritoneal pentobarbital (0.1 g/kg). Their right and left atria were isolated, superfused at 30° C. in Krebs-Henseleit buffer, and nearly isometric forces of contraction were measured from these muscles (Wolkowicz et al., 2002). 2-APB was prepared as a 150 mM dimethyl sulfoxide stock.
Left atria (n=8 per group) were paced at 3 Hz and (i) titrated with 0 to 30 nM isoproterenol (Ahlquist, 1970) or (ii) exposed to 3 μM forskolin (Laurenza et al., 1980). Left atrial force and frequency of contraction, the time to peak tension and relaxation times were recorded after a 3-5 min exposure to forskolin or to any concentration of isoproterenol. The 3 Hz pacing stimulus was interrupted at the end of these protocols to measure SMA. […]
Left atrial contraction and relaxation times were recorded at these five times, the pacing stimulus was stopped and rates of SMA were recorded. […] Atrial mechanical function was measured at these four times; the pacing stimulus then was stopped and rates of SMA were recorded.
Left atria (n=6 per group) were paced at 3 Hz, titrated with 0 to 300 nM (−)BayK 8644 ([…]-1,4-Dihydro-2,6-dimethyl-5-nitro-4-[2-(trifluormethyl)phenyl]-3-pyridinecarboxylic acid methyl ester; Franckowiak et al. 1985) or FPL-64176 (2,5-Dimethyl-4-[2-(phenylmethyl)benzoyl]-1H-pyrrole-3-carboxlic acid methyl ester); Zheng et al., 1991) and their mechanical function and rates of SMA were recorded after a 5 min exposure to any concentration of slow calcium channel activator.
Atrial mechanical function was recorded at this time; the pacing stimulus then was stopped and rates of SMA were recorded. […]
Left atria (n=7) were paced at 3 Hz, treated with 120 μM ouabain (Illanes and Marshall, 1964), and any change in mechanical function was recorded at a new steady state, ˜10 min later. […]

For experiment [2], the system named is right ventricular muscle strips and right ventricular papillary muscles. Description: Ventricular muscle model of SMA. The arrangement: species or system rats. To be noted: added to the superfusate in appropriate amounts; paced at 0.5 Hz. From the text:
To further establish this model as a general test for arrhythmic and anti-arrhythmic agents, right ventricular muscle strips and right ventricular papillary muscles were isolated from anesthetized rats using methods known to persons skilled in the art. These muscles were then superfused as described above and paced at 0.5 Hz.

For another experiment, the system named is rat left atria. How it is done:
The initial potentiated beat following prolonged rest (i.e., the PRP maximum force of contraction) reflects activator calcium available for SR release. The PRP response was used to obtain an indirect measure of left atrial SR calcium under our conditions.
Left atria (n=6) were superfused in KH, paced at 0.1 Hz, and subjected to PRP. Superfusion proceeded for another 35 min, and a second PRP was performed. These 2 forces were compared to assure the mechanical stability of our preparations.
One group (n=8) was superfused in KH, paced at 0.1 Hz, and their maximum force of contraction was measured.
A second group (n=8) was paced at 0.1 Hz in KH and subjected to PRP. They were exposed to 22 μM 2-APB and, after the appearance of SMA, were washed with KH containing 22 μM 2-APB and 82 mM sodium. Superfusion continued for 23 min and a second PRP was performed.
Control 0.1 Hz paced atria (n=8) were subjected to PRP and exposed to 400 μM DIDS, and a second PRP was performed 23 min later.
A group of atria (n=8) were paced at 0.1 Hz in KH and subjected to PRP. They were exposed to 22 μM 2-APB, 400 μM DIDS was added to the superfusate after the appearance of SMA, and a second PRP was performed 23 min later.

The mark [3] stands for this setting: 2-APB values obtained during SMA, mean ± SEM.

Several values for one entry are separate records, joined by “and”; a condition that tells them apart may be missing. Identical values can stand only once. Marks after values point to notes of the source that are not given here.

On to `NCCOB(c1ccccc1)c1ccccc1` [2-APB, 2-aminoethoxydiphenyl borate], for which, in experiment [1] (0.1 Hz, 15 μM 2-APB, washed with KH, data not shown), the “reversibility of SMA on removing 2-APB from the superfusate” value is given as “restored regular atrial mechanical function”. Also, in experiment [1] (setting [3]), the “T0.5R (time to 50% relaxation)” value amounted to 35 ± 0.8 ms, the “T0.9R (time to 90% relaxation)” value was determined as 74 ± 0.8 ms and the “TPT (time to peak tension)” value is 59 ± 1.6 ms. For the same molecule, the “2-APB concentration giving numerous SMEs during rest and a blunted post-rest response” value in experiment [1] (3 Hz paced, 2-APB 10 min, then 5 min rest) was not below 15 µM. Moreover, in experiment [1] (atria paced at 0.1 Hz), the “2-APB concentration giving intermittent SMEs” value is not above 10 µM and the “2-APB concentration giving repeated SMEs giving way to sustained SMA” value is more than 15 µM. In addition, the “2-APB concentration producing sporadic/intermittent spontaneous mechanical events” value in experiment [1] (left atria paced at 3 Hz, 5 to 10 min of exposure) is > 10 µM and > 7.5 µM. In addition, in the experiment with isolated rat left atria (300 nM BayK 8644 and 20 μM 2-APB), the “rate of tachycardic response, Pre-washing” value was 224±12 contractions/min. For the same molecule, the “rate of SMA/STA in the absence of pacing” value with isolated rat left atria (20 μM 2-APB alone or with 30 nM isoproterenol, 3 μM forskolin, 300 nM BayK 8644, 300 nM FPL-64176 or 120 μM ouabain) is 47±6 contractions/min and ~50 contractions/min. Besides, in the experiment with isolated rat left atria (concentrations per footnote), the “T0.5R (time to 50% relaxation)” value is reported as 35.9 msc, the “T0.9R (time to 90% relaxation)” value amounted to 68.4 msc and the “TPT (time to peak tension)” value worked out at 57.5 msc. Moreover, in the experiment on isolated rat left atria (spontaneous atrial mechanical events, concentrations per footnote), the “SMA Rate” value is 47^‡ SMEs per minute. In the experiment with isolated rat left atria (washed with superfusate containing slow calcium channel activator but no 2-APB, 5 min later), the “rate of tachycardic response, Post-washing” value was found to be 0.7±0.4 contractions/min. In addition, the “induction of ventricular SMA” value in experiment [2] was “ventricular SMA was observed”. The “maximum force of left atrial contraction vs values before the addition of 2-APB” value with rat left atria was “significantly decreased”.
